In PubChem BioAssay (NCI):
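Tested at 5 concentrations; 48 h exposure; 96-well plates; endpoints linearly interpolated, else capped at highest concentration. TGI denotes the concentration required for complete inhibition of growth.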

Columns and labels:
Assay in all cases: growth of human tumour cells (NCI), 48 h
UO-31 renal = system: UO-31 renal
NCI-H522 lung = system: NCI-H522 lung
SR leukemia = system: SR leukemia
OVCAR-3 ovarian = system: OVCAR-3 ovarian
MDA-MB-435 = system: MDA-MB-435
LOX IMVI melanoma = system: LOX IMVI melanoma
BT-549 breast = system: BT-549 breast
A498 renal = system: A498 renal
HT29 colon = system: HT29 colon
SN12C renal = system: SN12C renal
NCI/ADR-RES ovarian = system: NCI/ADR-RES ovarian
MALME-3M melanoma = system: MALME-3M melanoma
OVCAR-5 ovarian = system: OVCAR-5 ovarian
SF-295 CNS = system: SF-295 CNS
SF-539 CNS = system: SF-539 CNS
HOP-62 NSCLC = system: HOP-62 NSCLC
UACC-257 melanoma = system: UACC-257 melanoma
PC-3 prostate = system: PC-3 prostate
MOLT-4 leukemia = system: MOLT-4 leukemia
SNB-75 CNS = system: SNB-75 CNS
SK-MEL-2 melanoma = system: SK-MEL-2 melanoma
HCT-116 colon = system: HCT-116 colon
SK-MEL-28 melanoma = system: SK-MEL-28 melanoma
TK-10 renal = system: TK-10 renal
EKVX NSCLC = system: EKVX NSCLC
ACHN renal = system: ACHN renal
DU-145 prostate = system: DU-145 prostate
CCRF-CEM leukemia = system: CCRF-CEM leukemia
A549 NSCLC = system: A549 NSCLC
MDA-MB-231 breast = system: MDA-MB-231 breast
MCF7 breast = system: MCF7 breast
OVCAR-8 ovarian = system: OVCAR-8 ovarian
UACC-62 melanoma = system: UACC-62 melanoma
NCI-H23 lung = system: NCI-H23 lung
U251 CNS = system: U251 CNS
SF-268 CNS = system: SF-268 CNS
IGROV1 ovarian = system: IGROV1 ovarian
T-47D breast = system: T-47D breast
CAKI-1 renal = system: CAKI-1 renal
HCC-2998 colon = system: HCC-2998 colon
NCI-H460 lung = system: NCI-H460 lung
K-562 leukemia = system: K-562 leukemia
MDA-N = system: MDA-N
HOP-92 NSCLC = system: HOP-92 NSCLC
COLO 205 colon = system: COLO 205 colon
SK-MEL-5 melanoma = system: SK-MEL-5 melanoma
SK-OV-3 ovarian = system: SK-OV-3 ovarian
NCI-H226 lung = system: NCI-H226 lung
HCT-15 colon = system: HCT-15 colon
RXF 393 renal = system: RXF 393 renal
SW-620 colon = system: SW-620 colon
SNB-19 CNS = system: SNB-19 CNS
M14 melanoma = system: M14 melanoma
KM12 colon = system: KM12 colon
786-0 renal = system: 786-0 renal
OVCAR-4 ovarian = system: OVCAR-4 ovarian
HL-60(TB) leukemia = system: HL-60(TB) leukemia
HS 578T breast = system: HS 578T breast
RPMI-8226 leukemia = system: RPMI-8226 leukemia

Structure (SMILES): CCOP(=O)(OCC)/C(C#N)=C/c1cccn1Cc1ccccc1
- TGI (UO-31 renal): 99.7 µM
- TGI (NCI-H522 lung): 86.8 µM
- TGI (SR leukemia): > 100 µM
- TGI (OVCAR-3 ovarian): > 100 µM
- TGI (MDA-MB-435): 42 µM
- TGI (LOX IMVI melanoma): 53 µM
- TGI (BT-549 breast): 74.7 µM
- TGI (A498 renal): > 100 µM
- TGI (HT29 colon): > 100 µM
- TGI (SN12C renal): > 100 µM
- TGI (NCI/ADR-RES ovarian): > 100 µM
- TGI (MALME-3M melanoma): > 100 µM
- TGI (OVCAR-5 ovarian): > 100 µM
- TGI (SF-295 CNS): 97.6 µM
- TGI (SF-539 CNS): 36.1 µM
- TGI (HOP-62 NSCLC): > 100 µM
- TGI (UACC-257 melanoma): > 100 µM
- TGI (PC-3 prostate): > 100 µM
- TGI (MOLT-4 leukemia): 75.5 µM
- TGI (SNB-75 CNS): > 100 µM
- TGI (SK-MEL-2 melanoma): 47.8 µM
- TGI (HCT-116 colon): 39.7 µM
- TGI (SK-MEL-28 melanoma): 39.5 µM
- TGI (TK-10 renal): > 100 µM
- TGI (EKVX NSCLC): > 100 µM
- TGI (ACHN renal): > 100 µM
- TGI (DU-145 prostate): > 100 µM
- TGI (CCRF-CEM leukemia): > 100 µM
- TGI (A549 NSCLC): > 100 µM
- TGI (MDA-MB-231 breast): 57.5 µM
- TGI (MCF7 breast): > 100 µM
- TGI (OVCAR-8 ovarian): > 100 µM
- TGI (UACC-62 melanoma): 55 µM
- TGI (NCI-H23 lung): > 100 µM
- TGI (U251 CNS): 57.9 µM
- TGI (SF-268 CNS): > 100 µM
- TGI (IGROV1 ovarian): > 100 µM
- TGI (T-47D breast): 74 µM
- TGI (CAKI-1 renal): > 100 µM
- TGI (HCC-2998 colon): > 100 µM
- TGI (NCI-H460 lung): > 100 µM
- TGI (K-562 leukemia): > 100 µM
- TGI (MDA-N): 92.4 µM
- TGI (HOP-92 NSCLC): 36.9 µM
- TGI (COLO 205 colon): 44.5 µM
- TGI (SK-MEL-5 melanoma): 32.5 µM
- TGI (SK-OV-3 ovarian): > 100 µM
- TGI (NCI-H226 lung): 51.8 µM
- TGI (HCT-15 colon): > 100 µM
- TGI (RXF 393 renal): > 100 µM
- TGI (SW-620 colon): 75.2 µM
- TGI (SNB-19 CNS): > 100 µM
- TGI (M14 melanoma): > 100 µM
- TGI (KM12 colon): 78.3 µM
- TGI (786-0 renal): > 100 µM

Structure (SMILES): NC(=O)CO/N=C1/C(c2c(O)[nH]c3ccccc23)=Nc2ccccc21
- TGI (UO-31 renal): > 100 µM
- TGI (NCI-H522 lung): > 100 µM
- TGI (SR leukemia): > 56.9 µM
- TGI (OVCAR-3 ovarian): > 100 µM
- TGI (OVCAR-4 ovarian): > 100 µM
- TGI (MDA-MB-435): > 100 µM
- TGI (LOX IMVI melanoma): > 100 µM
- TGI (BT-549 breast): > 100 µM
- TGI (A498 renal): > 100 µM
- TGI (HL-60(TB) leukemia): > 100 µM
- TGI (HS 578T breast): > 100 µM
- TGI (HT29 colon): > 100 µM
- TGI (SN12C renal): > 100 µM
- TGI (RPMI-8226 leukemia): > 100 µM
- TGI (NCI/ADR-RES ovarian): > 100 µM
- TGI (MALME-3M melanoma): > 100 µM
- TGI (OVCAR-5 ovarian): > 100 µM
- TGI (SF-295 CNS): > 100 µM
- TGI (SF-539 CNS): > 100 µM
- TGI (HOP-62 NSCLC): > 100 µM
- TGI (UACC-257 melanoma): > 100 µM
- TGI (PC-3 prostate): > 100 µM
- TGI (MOLT-4 leukemia): > 100 µM
- TGI (SNB-75 CNS): > 100 µM
- TGI (SK-MEL-2 melanoma): > 100 µM
- TGI (HCT-116 colon): > 100 µM
- TGI (SK-MEL-28 melanoma): > 100 µM
- TGI (TK-10 renal): > 100 µM
- TGI (EKVX NSCLC): > 100 µM
- TGI (ACHN renal): > 100 µM
- TGI (DU-145 prostate): > 100 µM
- TGI (CCRF-CEM leukemia): > 100 µM
- TGI (A549 NSCLC): > 100 µM
- TGI (MDA-MB-231 breast): > 100 µM
- TGI (OVCAR-8 ovarian): > 100 µM
- TGI (UACC-62 melanoma): > 100 µM
- TGI (NCI-H23 lung): > 100 µM
- TGI (U251 CNS): > 100 µM
- TGI (SF-268 CNS): > 100 µM
- TGI (IGROV1 ovarian): > 100 µM
- TGI (CAKI-1 renal): > 100 µM
- TGI (NCI-H460 lung): > 100 µM
- TGI (K-562 leukemia): > 100 µM
- TGI (MDA-N): > 100 µM
- TGI (HOP-92 NSCLC): > 100 µM
- TGI (COLO 205 colon): > 100 µM
- TGI (SK-MEL-5 melanoma): > 100 µM
- TGI (SK-OV-3 ovarian): > 100 µM
- TGI (NCI-H226 lung): > 100 µM
- TGI (HCT-15 colon): > 100 µM
- TGI (SW-620 colon): > 100 µM
- TGI (SNB-19 CNS): > 100 µM
- TGI (M14 melanoma): > 100 µM
- TGI (KM12 colon): > 100 µM
- TGI (786-0 renal): > 100 µM
